Assay results: ChEMBL document CHEMBL1201862, “PubChem BioAssay data set” (2004)
Values joined by “and” are separate entries in the source; they are usually repeats but may differ in a detail not shown here. Identical values can stand only once. Active and inactive are the calls of the source.

How the values were obtained:
[1] = target: Induced myeloid leukemia cell differentiation protein Mcl-1 (Homo sapiens, UniProt Q07820); format: functional
Large T antigen = Large T antigen (Simian virus 40, UniProt P03070); format: functional, Betapolyomavirus macacae;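 further: Confirmatory-stage PubChem screen for compounds that inhibit SV40 T antigen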
[2] = target: T1, Tyrosine-protein phosphatase non-receptor type 7 (Homo sapiens, UniProt P35236); test: HePTP (PTPN7) phosphatase inhibitor potency, SAR follow-up, biochemical, set 2 (AID 449736); format: functional
T1 sequence (P35236 whole entry): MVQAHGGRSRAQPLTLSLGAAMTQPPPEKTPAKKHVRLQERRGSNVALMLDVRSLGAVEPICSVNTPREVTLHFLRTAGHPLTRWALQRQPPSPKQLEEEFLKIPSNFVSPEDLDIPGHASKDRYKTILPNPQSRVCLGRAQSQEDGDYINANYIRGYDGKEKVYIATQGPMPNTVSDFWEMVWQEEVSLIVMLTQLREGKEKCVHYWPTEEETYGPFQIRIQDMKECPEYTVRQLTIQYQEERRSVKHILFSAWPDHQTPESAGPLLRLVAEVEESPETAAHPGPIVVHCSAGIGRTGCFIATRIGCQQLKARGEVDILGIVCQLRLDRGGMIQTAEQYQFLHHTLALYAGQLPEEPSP

[3] = target: T2, Tyrosine-protein phosphatase non-receptor type 22 (Homo sapiens, UniProt Q9Y2R2); test: LYP (PTPN22) phosphatase inhibitor potency, SAR follow-up, biochemical, pCAP fluorogenic substrate, fluorescence, set 3 (AID 449727); format: functional
T2 sequence (Q9Y2R2 whole entry): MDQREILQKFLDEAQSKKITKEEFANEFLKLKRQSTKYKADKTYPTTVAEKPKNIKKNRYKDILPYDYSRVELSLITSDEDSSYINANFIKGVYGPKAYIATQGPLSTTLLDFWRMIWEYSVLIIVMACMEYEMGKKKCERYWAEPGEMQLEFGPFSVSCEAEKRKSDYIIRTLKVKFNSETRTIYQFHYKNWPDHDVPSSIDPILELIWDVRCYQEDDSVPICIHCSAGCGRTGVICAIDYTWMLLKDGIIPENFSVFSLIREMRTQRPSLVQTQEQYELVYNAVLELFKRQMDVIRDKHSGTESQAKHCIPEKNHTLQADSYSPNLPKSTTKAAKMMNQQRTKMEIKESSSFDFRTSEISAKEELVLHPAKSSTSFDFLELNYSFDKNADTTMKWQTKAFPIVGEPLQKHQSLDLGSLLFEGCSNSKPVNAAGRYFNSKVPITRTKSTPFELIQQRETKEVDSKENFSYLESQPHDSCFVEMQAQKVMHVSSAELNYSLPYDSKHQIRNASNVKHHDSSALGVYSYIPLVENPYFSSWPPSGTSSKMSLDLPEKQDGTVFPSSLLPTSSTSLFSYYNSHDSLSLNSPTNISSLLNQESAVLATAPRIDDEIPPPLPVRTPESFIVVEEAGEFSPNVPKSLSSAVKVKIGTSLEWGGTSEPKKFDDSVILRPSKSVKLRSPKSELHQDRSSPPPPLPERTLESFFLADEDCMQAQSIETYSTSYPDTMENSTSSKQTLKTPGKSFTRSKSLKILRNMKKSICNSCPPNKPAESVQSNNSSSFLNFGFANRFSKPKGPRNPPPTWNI

[4] = target: T2, Tyrosine-protein phosphatase non-receptor type 22; test: SAR LYP1 Fluorescent Assay using OMFP substrate for In Vitro dose response studies - Set 3. [Related pubchem assays (depositor defined):AID1779, AID1784, AID2140, AID2686]; format: functional
[5] = target: Tyrosine-protein phosphatase non-receptor type 12 (Homo sapiens, UniProt Q05209); test: SAR Selectivity Analysis of small molecule inhibitors of PEST using pCAP in a fluorescence assay. [Related pubchem assays (depositor defined):AID1779, AID1784, AID2135]; format: functional
[6] = fluorescence interference artefacts, compound only, dose response, artefact control for cardiac thin filament activator project, biochemical, no RTF in test wells (AID 504697)
Troponin, cardiac muscle = Troponin, cardiac muscle (Homo sapiens, UniProt P19429+P45379+P63316); test: Fluorescence-based biochemical high throughput dose response assay for activators of the calcium sensitivity of cardiac Regulated Thin Filaments (RTF). [Related pubchem assays (depositor defined):AID493008, AID493018, AID504382, AID504383]; format: protein-complex assay
[7] = target: T3, Endoribonuclease toxin MazF (Escherichia coli K-12, UniProt P0AE70); test: fluorescent RNA oligo signal without MazF, dose response, counter-screen for MazEF activator project, biochemical, fluorescence, single-stranded RNase substrate (AID 588502); format: functional
T3 sequence (P0AE70 whole entry): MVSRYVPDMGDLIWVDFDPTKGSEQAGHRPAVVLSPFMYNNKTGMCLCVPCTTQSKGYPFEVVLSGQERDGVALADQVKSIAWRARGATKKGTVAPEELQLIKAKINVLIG

Exodeoxyribonuclease V = target: T4, Exodeoxyribonuclease V (Escherichia coli (strain K12), UniProt P04993+P07648+P08394); test: E. coli RecBCD inhibitors, dose response, counter-screen for AddAB inhibitor project, absorbance, V66 E. coli, mutant T4 phage (AID 492957); format: functional, cell-based, Escherichia coli str. K-12 substr. MG1655
T4 sequence (P04993 whole entry): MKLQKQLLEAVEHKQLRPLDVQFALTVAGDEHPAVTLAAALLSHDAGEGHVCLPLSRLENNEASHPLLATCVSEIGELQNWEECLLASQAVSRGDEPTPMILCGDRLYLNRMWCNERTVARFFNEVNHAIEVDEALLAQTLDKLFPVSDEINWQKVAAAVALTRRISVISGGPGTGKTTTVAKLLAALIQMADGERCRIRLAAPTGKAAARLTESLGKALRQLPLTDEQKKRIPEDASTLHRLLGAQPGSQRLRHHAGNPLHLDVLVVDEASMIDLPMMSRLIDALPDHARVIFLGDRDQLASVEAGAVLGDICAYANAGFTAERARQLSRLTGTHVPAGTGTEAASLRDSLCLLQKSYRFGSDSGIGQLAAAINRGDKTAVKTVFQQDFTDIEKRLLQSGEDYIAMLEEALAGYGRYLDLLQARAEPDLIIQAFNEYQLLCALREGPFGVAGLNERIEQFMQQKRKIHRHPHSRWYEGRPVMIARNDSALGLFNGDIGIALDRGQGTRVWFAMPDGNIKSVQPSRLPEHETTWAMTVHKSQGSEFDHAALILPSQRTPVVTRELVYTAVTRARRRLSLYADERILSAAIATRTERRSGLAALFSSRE
T4 sequence (P07648 whole entry): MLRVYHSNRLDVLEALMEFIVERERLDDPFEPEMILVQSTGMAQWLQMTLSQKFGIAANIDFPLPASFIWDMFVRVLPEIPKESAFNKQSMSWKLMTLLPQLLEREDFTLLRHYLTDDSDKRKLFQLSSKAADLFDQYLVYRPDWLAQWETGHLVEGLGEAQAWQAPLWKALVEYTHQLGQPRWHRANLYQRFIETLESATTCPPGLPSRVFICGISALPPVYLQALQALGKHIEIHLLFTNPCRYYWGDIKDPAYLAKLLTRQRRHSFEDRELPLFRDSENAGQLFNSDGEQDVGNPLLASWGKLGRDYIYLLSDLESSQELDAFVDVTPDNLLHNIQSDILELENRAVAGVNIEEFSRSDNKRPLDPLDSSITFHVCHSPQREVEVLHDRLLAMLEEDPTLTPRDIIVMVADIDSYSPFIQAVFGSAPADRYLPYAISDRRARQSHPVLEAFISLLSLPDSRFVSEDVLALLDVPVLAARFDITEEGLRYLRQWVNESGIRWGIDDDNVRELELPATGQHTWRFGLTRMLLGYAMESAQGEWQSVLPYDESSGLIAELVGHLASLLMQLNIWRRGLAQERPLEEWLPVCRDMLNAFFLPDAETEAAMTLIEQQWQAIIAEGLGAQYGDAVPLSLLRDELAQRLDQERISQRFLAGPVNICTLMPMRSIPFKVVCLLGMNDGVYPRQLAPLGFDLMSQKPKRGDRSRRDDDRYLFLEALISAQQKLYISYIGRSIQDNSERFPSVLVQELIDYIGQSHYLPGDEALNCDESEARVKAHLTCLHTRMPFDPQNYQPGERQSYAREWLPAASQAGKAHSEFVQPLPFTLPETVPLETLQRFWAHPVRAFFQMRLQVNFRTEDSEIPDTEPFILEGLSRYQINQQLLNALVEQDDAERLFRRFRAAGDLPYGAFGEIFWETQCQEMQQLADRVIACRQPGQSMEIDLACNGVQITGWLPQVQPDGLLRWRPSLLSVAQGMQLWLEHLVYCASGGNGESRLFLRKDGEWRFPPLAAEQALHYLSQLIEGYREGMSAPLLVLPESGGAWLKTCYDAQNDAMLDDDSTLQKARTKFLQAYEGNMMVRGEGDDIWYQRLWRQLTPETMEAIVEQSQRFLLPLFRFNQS
T4 sequence (P08394 whole entry): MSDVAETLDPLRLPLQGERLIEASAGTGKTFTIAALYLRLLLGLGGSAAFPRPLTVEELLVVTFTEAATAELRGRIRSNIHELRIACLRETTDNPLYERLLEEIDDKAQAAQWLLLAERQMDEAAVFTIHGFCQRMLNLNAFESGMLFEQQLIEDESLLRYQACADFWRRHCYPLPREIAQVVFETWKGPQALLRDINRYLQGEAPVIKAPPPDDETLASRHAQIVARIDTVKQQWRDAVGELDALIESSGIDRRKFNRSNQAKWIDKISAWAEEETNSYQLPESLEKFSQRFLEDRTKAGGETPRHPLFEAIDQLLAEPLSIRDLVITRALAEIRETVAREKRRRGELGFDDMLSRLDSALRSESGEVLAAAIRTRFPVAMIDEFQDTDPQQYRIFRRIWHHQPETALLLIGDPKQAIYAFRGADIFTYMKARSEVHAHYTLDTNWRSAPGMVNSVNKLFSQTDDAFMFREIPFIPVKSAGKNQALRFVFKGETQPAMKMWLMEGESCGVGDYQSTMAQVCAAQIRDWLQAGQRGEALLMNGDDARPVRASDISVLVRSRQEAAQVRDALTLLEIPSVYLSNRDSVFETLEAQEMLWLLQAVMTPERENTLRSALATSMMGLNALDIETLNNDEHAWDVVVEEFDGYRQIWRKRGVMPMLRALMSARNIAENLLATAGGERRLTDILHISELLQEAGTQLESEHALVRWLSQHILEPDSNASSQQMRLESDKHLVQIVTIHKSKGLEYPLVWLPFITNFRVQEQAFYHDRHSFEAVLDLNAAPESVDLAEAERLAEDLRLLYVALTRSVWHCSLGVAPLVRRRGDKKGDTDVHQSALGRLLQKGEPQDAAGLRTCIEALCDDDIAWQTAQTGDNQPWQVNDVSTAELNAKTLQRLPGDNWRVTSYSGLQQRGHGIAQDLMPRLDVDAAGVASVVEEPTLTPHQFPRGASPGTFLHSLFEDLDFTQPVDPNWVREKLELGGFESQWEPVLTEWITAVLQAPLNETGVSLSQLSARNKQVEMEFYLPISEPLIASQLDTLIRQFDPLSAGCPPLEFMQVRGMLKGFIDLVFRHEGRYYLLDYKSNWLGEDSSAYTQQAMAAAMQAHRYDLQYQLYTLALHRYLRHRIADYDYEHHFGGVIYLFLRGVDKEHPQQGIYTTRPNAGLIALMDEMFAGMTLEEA

[8] = target: T3, Endoribonuclease toxin MazF; test: MazF toxin RNase activators, dose response, biochemical, fluorescence, single-stranded RNA substrate, uHTS hits (AID 588481); format: functional
[9] = microbe, parasite or virus in culture; format: functional; conditions: Mycobacterium tuberculosis
[10] = target: Intestinal-type alkaline phosphatase (Mus musculus, UniProt P24822); test: PubChem AID 488874; format: functional
[11] = target: T5, Intestinal-type alkaline phosphatase (Homo sapiens, UniProt P09923); test: human intestinal alkaline phosphatase activators, dose response, biochemical, luminescence, uHTS hits (AID 463120); format: functional
[12] = target: T5, Intestinal-type alkaline phosphatase; test: human IAP activators, dose response, biochemical, luminescent, uHTS hits, set 2 (AID 488817); format: functional;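 further: potency of activators that raise enzyme activity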
[13] = target: Heat shock protein HSP 90-alpha (Homo sapiens, UniProt P07900); format: functional, organism-based
[14] = Counterscreen for AddAB inhibitors: absorbance-based bacterial cell-based high throughput dose response assay for inhibitors of bacterial viability. [Related pubchem assays (depositor defined):AID435030, AID449728, AID449731, AID488942, AID488955, AID488956]; format: functional

T5 sequence (P09923 whole entry): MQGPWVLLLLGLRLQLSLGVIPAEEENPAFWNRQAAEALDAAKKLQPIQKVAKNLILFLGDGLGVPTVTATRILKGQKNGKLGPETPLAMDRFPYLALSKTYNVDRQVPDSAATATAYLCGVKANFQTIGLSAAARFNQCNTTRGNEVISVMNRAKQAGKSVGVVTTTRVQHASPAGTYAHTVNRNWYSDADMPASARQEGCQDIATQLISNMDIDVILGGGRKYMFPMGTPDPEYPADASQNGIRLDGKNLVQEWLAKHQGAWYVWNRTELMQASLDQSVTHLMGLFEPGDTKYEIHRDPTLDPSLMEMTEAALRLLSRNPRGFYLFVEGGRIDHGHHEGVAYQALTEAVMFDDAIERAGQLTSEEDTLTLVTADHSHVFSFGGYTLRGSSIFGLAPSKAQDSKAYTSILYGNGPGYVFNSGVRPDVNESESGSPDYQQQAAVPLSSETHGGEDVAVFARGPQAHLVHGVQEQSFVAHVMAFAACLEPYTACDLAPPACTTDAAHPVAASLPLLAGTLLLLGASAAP
Tyrosine-protein phosphatase non-receptor type 12, sequence (Q05209 whole entry): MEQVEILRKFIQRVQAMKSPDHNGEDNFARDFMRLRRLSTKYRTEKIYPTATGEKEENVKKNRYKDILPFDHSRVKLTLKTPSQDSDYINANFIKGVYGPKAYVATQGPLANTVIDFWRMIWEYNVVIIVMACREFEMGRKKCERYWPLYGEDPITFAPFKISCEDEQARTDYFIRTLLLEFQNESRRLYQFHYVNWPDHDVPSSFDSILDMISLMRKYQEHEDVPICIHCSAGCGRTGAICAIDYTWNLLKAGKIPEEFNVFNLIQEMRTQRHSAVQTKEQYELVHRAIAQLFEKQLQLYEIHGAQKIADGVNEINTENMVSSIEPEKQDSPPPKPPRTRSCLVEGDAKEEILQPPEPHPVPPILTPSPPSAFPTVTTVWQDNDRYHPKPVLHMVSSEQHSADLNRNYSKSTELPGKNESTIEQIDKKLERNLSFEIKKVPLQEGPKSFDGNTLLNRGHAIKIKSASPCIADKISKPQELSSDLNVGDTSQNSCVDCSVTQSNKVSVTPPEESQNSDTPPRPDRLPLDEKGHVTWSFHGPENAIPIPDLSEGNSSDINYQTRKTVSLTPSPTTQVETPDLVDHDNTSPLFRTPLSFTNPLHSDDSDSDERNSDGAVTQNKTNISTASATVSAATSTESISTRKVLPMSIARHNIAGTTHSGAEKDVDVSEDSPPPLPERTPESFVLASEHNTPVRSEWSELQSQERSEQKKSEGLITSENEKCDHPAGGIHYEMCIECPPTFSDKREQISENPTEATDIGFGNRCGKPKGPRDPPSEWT
Induced myeloid leukemia cell differentiation protein Mcl-1, sequence (Q07820 whole entry): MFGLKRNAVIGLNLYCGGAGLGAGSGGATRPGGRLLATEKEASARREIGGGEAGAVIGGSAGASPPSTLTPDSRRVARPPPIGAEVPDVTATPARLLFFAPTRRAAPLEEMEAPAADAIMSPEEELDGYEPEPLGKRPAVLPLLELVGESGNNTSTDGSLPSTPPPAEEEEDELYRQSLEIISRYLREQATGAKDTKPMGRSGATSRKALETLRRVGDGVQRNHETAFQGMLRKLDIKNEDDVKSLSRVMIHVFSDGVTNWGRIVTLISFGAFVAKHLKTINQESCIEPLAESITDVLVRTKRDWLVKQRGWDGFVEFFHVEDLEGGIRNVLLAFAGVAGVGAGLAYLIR
Large T antigen, sequence (P03070 whole entry): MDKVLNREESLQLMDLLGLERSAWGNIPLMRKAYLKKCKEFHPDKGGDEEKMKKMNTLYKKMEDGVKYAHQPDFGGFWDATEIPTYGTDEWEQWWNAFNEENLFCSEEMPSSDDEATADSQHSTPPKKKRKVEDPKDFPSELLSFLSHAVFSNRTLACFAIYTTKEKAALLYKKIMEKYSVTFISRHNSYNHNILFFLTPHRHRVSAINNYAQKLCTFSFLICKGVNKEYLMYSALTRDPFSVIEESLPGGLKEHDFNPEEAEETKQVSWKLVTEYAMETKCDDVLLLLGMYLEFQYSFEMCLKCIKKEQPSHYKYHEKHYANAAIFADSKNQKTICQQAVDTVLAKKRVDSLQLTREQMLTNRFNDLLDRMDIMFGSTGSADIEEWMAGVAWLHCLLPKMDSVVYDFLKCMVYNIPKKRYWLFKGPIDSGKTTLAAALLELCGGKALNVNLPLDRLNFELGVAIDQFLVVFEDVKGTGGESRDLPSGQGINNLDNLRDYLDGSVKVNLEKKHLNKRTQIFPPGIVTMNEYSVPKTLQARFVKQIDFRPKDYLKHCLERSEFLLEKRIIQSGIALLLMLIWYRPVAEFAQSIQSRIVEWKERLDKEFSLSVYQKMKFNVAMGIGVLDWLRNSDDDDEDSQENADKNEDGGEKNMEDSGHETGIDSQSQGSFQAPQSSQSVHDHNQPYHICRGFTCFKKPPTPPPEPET
Intestinal-type alkaline phosphatase (Mus musculus, UniProt P24822), sequence (P24822 whole entry): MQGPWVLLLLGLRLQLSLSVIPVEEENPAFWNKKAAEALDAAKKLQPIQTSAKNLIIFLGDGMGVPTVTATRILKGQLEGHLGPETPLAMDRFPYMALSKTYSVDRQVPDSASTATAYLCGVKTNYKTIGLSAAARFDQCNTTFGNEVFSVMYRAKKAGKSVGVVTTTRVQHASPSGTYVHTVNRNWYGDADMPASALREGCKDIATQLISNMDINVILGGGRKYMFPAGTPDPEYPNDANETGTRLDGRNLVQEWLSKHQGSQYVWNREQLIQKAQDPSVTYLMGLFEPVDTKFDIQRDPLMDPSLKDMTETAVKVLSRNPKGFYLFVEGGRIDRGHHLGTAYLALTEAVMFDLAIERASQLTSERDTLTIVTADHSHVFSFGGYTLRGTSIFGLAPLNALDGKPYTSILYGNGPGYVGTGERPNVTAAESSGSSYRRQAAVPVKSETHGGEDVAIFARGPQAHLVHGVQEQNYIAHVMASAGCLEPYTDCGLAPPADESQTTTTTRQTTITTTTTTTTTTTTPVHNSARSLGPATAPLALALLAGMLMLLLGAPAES

CC(/C=C1\SC(=S)N(CCCC(=O)Nc2ccc(C(=O)O)c(O)c2)C1=O)=C\c1ccccc1
IC50 [1]: 1.56 µM (active)
IC50 (Large T antigen): > 100 µM (active)
IC50 [2]: 739 nM (active) and 703 nM (active)
IC50 [3]: 37.9 µM (active) and 40.9 µM (active)
IC50 [4]: 49.1 µM (active) and 44.9 µM (active)
IC50 [5]: 14 µM (active) and 9.91 µM (active)

N#C/C(=C/c1ccc(-c2ccccc2)o1)c1nc(-c2cccs2)cs1
EC50 [6]: > 7.94 µM (active)
EC50 (Troponin, cardiac muscle): 0.615 µM (active)

C=CCN1C(=O)/C(=N/Nc2ccccc2O)c2ccccc21
EC50 [7]: 46.3 µM (inactive)
IC50 (Exodeoxyribonuclease V): > 118 µM (inactive)
EC50 [8]: > 99 µM (inactive)
CC50 [9]: 38.1 µM (active)
IC50 [10]: 9.81 µM (active)
EC50 [11]: 8.62 µM (active)
EC50 [12]: 0.378 µM (active)
AC50 [13]: 10.9 µM (active)
IC50 [14]: 42.8 µM (inactive)
